# From patent US12667560B2, “Co-administration of mirdametinib and lifirafenib for use in treating cancers” (BeiGene, Ltd., priority 2020, dated 2026)
# Structures can show the parent of a compound that is named as a salt.
# Tested on: subcutaneous Calu-6 tumors which harbor a K-RAS mutation
# Assay: Efficacy study in Calu-6 K-RAS mutated human xenograft lung adenocarcinoma model
# Format: in vivo, Balb/c nude mice
# Details: Compound B maleate alone, 2.5 mg/kg (free base) p.o. BID, Group 2
# Description: To determine the effects of Compound B Maleate and Compound A, alone or in combination, on growth of subcutaneous Calu-6 tumors which harbor a K-RAS mutation in Balb/c nude mice in an Efficacy Study.
# Experimental designs for the Efficacy study are illustrated in Table 2.
# Each mouse was inoculated subcutaneously at the right flank with Calu-6 tumor cells (5×10^6 cells in 0.1 ml 50% Matrigel® in MEM). Tubes containing suspended cells and syringes were kept on ice to avoid solidification of Matrigel®. 2× overage was implemented for cell injection. When mean tumor volume reached the indicated sizes in Table 2, animals were randomly assigned to the indicated groups in Table 2 and received the first dosing. […]
# Tumor volumes and mouse body weights were measured three times weekly after tumors became palpable and before randomization and grouping. Afterwards, tumor volumes and mouse body weights were measured twice weekly to termination, in two dimensions using a caliper, and the tumor volumes were expressed in mm^3 using the formula: V=0.5 L×W^2, where L and W were the long and short diameters of the tumor, respectively. The TGI value for the drug A-treated group at Day X was calculated as following: TGI (%)={1−[mTV(drug at Day X)−mTV(drug at Day 0)]/[mTV(veh at Day X)−mTV(veh at Day 0)]}×100, where mTV represented mean tumor volume. […]
smiles,measurement,value
O=C1CCc2c(Oc3ccc4c(c3)[C@@H]3[C@H](C4)[C@H]3c3nc4ccc(C(F)(F)F)cc4[nH]3)ccnc2N1 [Compound B maleate],inhibition of Calu-6 tumor growth compared to the vehicle control,significant inhibition
